Measurements taken from US11547681B2, “N-acylethanolamide derivatives and uses thereof” (ELIEM THERAPEUTICS, INC., priority 2016, dated 2023).

Assay: in vitro
Settings: for Concentration (μM) of analyte PEA, 0 min / Concentration (μM) of analyte PEA, 10 min / Concentration (μM) of analyte PEA, 20 min / Concentration (μM) of analyte PEA, 30 min / Concentration (μM) of analyte PEA, 60 min / % Remaining of Initial (n = 1), 0 min / % Remaining of Initial (n = 1), 10 min / % Remaining of Initial (n = 1), 20 min / % Remaining of Initial (n = 1), 30 min / % Remaining of Initial (n = 1), 60 min / Measured concentration of PEA (analyte) / % Remaining of Initial: 1 μM
Method: Reaction mixture, minus cofactors, was prepared as described below. Test article was added into the reaction mixture at a final concentration of 1 μM. […] An aliquot of the reaction mixture (without cofactor cocktail) was equilibrated in a shaking water bath at 37° C. for 3 minutes. The reaction was initiated by the addition of cofactor cocktail (see below), and the mixture was then incubated in a shaking water bath at 37° C. Aliquots (100 μL) were withdrawn 0, 10, 20, 30 and 60 minutes. Test article samples were immediately combined with 300 μL of ice-cold acetonitrile containing 1% formic acid. Control samples were immediately combined with 400 μL of ice-cold 50/50 acetonitrile (ACN)/dH2O containing 0.1% formic acid and internal standard to terminate the reaction. Samples were then mixed and centrifuged to precipitate proteins. Calibration standards were prepared in matched matrix. Samples and standards were assayed by LC-MS/MS using electrospray ionization for both the dosed prodrug and the expected drug (PEA). Analytical conditions are outlined in Appendix 8-1. Test article concentration at each time point was compared to the test article concentration at time 0 to determine the percent remaining at each time point. Half-lives were calculated using GraphPad software, fitting to a single-phase exponential decay equation.
Reaction mixture, minus cofactors, was prepared as described below. Test article was added into the reaction mixture at a final concentration of 1 μM. […] An aliquot of the reaction mixture (without cofactor cocktail) was equilibrated in a shaking water bath at 37° C. for 5 minutes. Reaction was initiated by the addition of cofactor cocktail (see below), and mixture was then incubated in a shaking water bath at 37° C. Aliquots (100 μL) were withdrawn at 0, 10, 20, 30, and 60 minutes. Test article samples were immediately combined with 300 μL of ice-cold acetonitrile containing 1% formic acid. Control samples were immediately combined with 400 μL of ice-cold 50/50 acetonitrile (ACN)/dH2O containing 0.1% formic acid and internal standard to terminate the reaction. Samples were then mixed and centrifuged to precipitate proteins. Calibration standards were prepared in matched matrix. Samples and standards were assayed by LC-MS/MS using electrospray ionization for both dosed prodrug and expected drug (PEA). Analytical conditions are outlined in Appendix 10-1. Test article concentration at each time point was compared to test article concentration at time 0 to determine the percent remaining at each time point. Half-lives were calculated using GraphPad software, fitting to a single-phase exponential decay equation.
The reaction mixture, minus cofactors, was prepared as described below. Test article was added into the reaction mixture at a final concentration of 1 μM. […] An aliquot of the reaction mixture (without cofactor cocktail) was equilibrated in a shaking water bath at 37° C. for 3 minutes. Reaction was initiated by the addition of cofactor cocktail (see below), and the mixture was then incubated in a shaking water bath at 37° C. Aliquots (100 μL) were withdrawn at 0, 10, 20, 30, and 60 minutes. Test article samples were immediately combined with 300 μL of ice-cold acetonitrile containing 1% formic acid. Control samples were immediately combined with 400 μL of ice-cold 50/50 acetonitrile (ACN)/dH2O containing 0.1% formic acid and internal standard to terminate the reaction. Samples were then mixed and centrifuged to precipitate proteins. Calibration standards were prepared in matched matrix. Samples and standards were assayed by LC-MS/MS using electrospray ionization for both dosed prodrug and expected drug (PEA). Analytical conditions are outlined in Appendix 13-1. Test article concentration at each time point was compared to the test article concentration at time 0 to determine the percent remaining at each time point.

[1] = male, Sprague-Dawley, rat, 0 min
[2] = male, Sprague-Dawley, rat, 10 min
[3] = male, Sprague-Dawley, rat, 20 min
[4] = male, Sprague-Dawley, rat, 30 min
[5] = male, Sprague-Dawley, rat, 60 min
[6] = male, Sprague-Dawley, rat, s9, 0 h
[7] = male, Sprague-Dawley, rat, s9, 10 min
[8] = male, Sprague-Dawley, rat, s9, 20 min
[9] = male, Sprague-Dawley, rat, s9, 0.5 h
[10] = male, Sprague-Dawley, rat, s9, 1 h

## CCCCCCCCCCCCCCCC(=O)NCCOC(=O)CCC(=O)OC[C@H]1O[C@@](CO)(O[C@H]2O[C@H](CO)[C@@H](O)[C@H](O)[C@H]2O)[C@@H](O)[C@@H]1O [Compound I-7]
both, human, 0 min
  Concentration (μM) of analyte PEA, 0 min: 0.20 µM
both, human, 10 min
  Concentration (μM) of analyte PEA, 10 min: 0.32 µM
both, human, 20 min
  Concentration (μM) of analyte PEA, 20 min: 0.17 µM
both, human, 30 min
  Concentration (μM) of analyte PEA, 30 min: 0.13 µM
both, human, 60 min
  Concentration (μM) of analyte PEA, 60 min: 0.042 µM
both, human, s9, 0 h
  % Remaining of Initial (n = 1), 0 min: 100%
both, human, s9, 10 min
  % Remaining of Initial (n = 1), 10 min: 1.9%
both, human, s9, 20 min
  % Remaining of Initial (n = 1), 20 min: <1.0%
both, human, s9, 0.5 h
  % Remaining of Initial (n = 1), 30 min: <1.0%
both, human, s9, 1 h
  % Remaining of Initial (n = 1), 60 min: <1.0%
male, Beagle, dog, 0 min
  Concentration (μM) of analyte PEA, 0 min: 0.21 µM
male, Beagle, dog, 10 min
  Concentration (μM) of analyte PEA, 10 min: 0.16 µM
male, Beagle, dog, 20 min
  Concentration (μM) of analyte PEA, 20 min: 0.15 µM
male, Beagle, dog, 30 min
  Concentration (μM) of analyte PEA, 30 min: 0.12 µM
male, Beagle, dog, 60 min
  Concentration (μM) of analyte PEA, 60 min: 0.049 µM
male, Beagle, dog, s9, 0 h
  % Remaining of Initial (n = 1), 0 min: 100%
male, Beagle, dog, s9, 10 min
  % Remaining of Initial (n = 1), 10 min: <1.0%
male, Beagle, dog, s9, 20 min
  % Remaining of Initial (n = 1), 20 min: <1.0%
male, Beagle, dog, s9, 0.5 h
  % Remaining of Initial (n = 1), 30 min: <1.0%
male, Beagle, dog, s9, 1 h
  % Remaining of Initial (n = 1), 60 min: <1.0%
male, Beagle, dog, s9, Half-life (min)
  half-life at 1 μM: < 1 min
male, CD-1, mouse, 0 min
  Concentration (μM) of analyte PEA, 0 min: 0.22 µM
male, CD-1, mouse, 10 min
  Concentration (μM) of analyte PEA, 10 min: 0.22 µM
male, CD-1, mouse, 20 min
  Concentration (μM) of analyte PEA, 20 min: 0.14 µM
male, CD-1, mouse, 30 min
  Concentration (μM) of analyte PEA, 30 min: 0.084 µM
male, CD-1, mouse, 60 min
  Concentration (μM) of analyte PEA, 60 min: 0.020 µM
male, CD-1, mouse, s9, 0 h
  % Remaining of Initial (n = 1), 0 min: 100%
male, CD-1, mouse, s9, 10 min
  % Remaining of Initial (n = 1), 10 min: 1.6%
male, CD-1, mouse, s9, 20 min
  % Remaining of Initial (n = 1), 20 min: <1.0%
male, CD-1, mouse, s9, 0.5 h
  % Remaining of Initial (n = 1), 30 min: <1.0%
male, CD-1, mouse, s9, 1 h
  % Remaining of Initial (n = 1), 60 min: <1.0%
[1]
  Concentration (μM) of analyte PEA, 0 min: 0.045 µM
[2]
  Concentration (μM) of analyte PEA, 10 min: 0.15 µM
[3]
  Concentration (μM) of analyte PEA, 20 min: 0.16 µM
[4]
  Concentration (μM) of analyte PEA, 30 min: 0.12 µM
[5]
  Concentration (μM) of analyte PEA, 60 min: 0.039 µM
[6]
  % Remaining of Initial (n = 1), 0 min: 100%
[7]
  % Remaining of Initial (n = 1), 10 min: 43%
[8]
  % Remaining of Initial (n = 1), 20 min: 22%
[9]
  % Remaining of Initial (n = 1), 30 min: 11%
[10]
  % Remaining of Initial (n = 1), 60 min: 1.4%

## CCCCCCCCCCCCCCCC(=O)NCCOC(=O)CCC(=O)OC(CO)CO [Compound I-8]
both, human, 0 min
  Measured concentration of PEA (analyte): 0.19 µM
both, human, 10 min
  Measured concentration of PEA (analyte): 0.57 µM
both, human, 20 min
  Measured concentration of PEA (analyte): 0.47 µM
both, human, 30 min
  Measured concentration of PEA (analyte): 0.41 µM
both, human, 60 min
  Measured concentration of PEA (analyte): 0.28 µM
both, human, s9, 0 h
  % Remaining of Initial: 100%
both, human, s9, 10 min
  % Remaining of Initial: 1.4%
both, human, s9, 20 min
  % Remaining of Initial: <1.0%
both, human, s9, 0.5 h
  % Remaining of Initial: <1.0%
both, human, s9, 1 h
  % Remaining of Initial: <1.0%
both, human, s9, Half-life
  half-life at 1 μM: < 10 min
male, Beagle, dog, 0 min
  Measured concentration of PEA (analyte): 0.13 µM
male, Beagle, dog, 10 min
  Measured concentration of PEA (analyte): 0.33 µM
male, Beagle, dog, 20 min
  Measured concentration of PEA (analyte): 0.34 µM
male, Beagle, dog, 30 min
  Measured concentration of PEA (analyte): 0.33 µM
male, Beagle, dog, 60 min
  Measured concentration of PEA (analyte): 0.20 µM
male, Beagle, dog, s9, 0 h
  % Remaining of Initial: 100%
male, Beagle, dog, s9, 10 min
  % Remaining of Initial: 32%
male, Beagle, dog, s9, 20 min
  % Remaining of Initial: 11%
male, Beagle, dog, s9, 0.5 h
  % Remaining of Initial: 3.5%
male, Beagle, dog, s9, 1 h
  % Remaining of Initial: <1.0%
male, Beagle, dog, s9, Half-life
  half-life at 1 μM: < 10 min
male, CD-1, mouse, 0 min
  Measured concentration of PEA (analyte): 0.29 µM
male, CD-1, mouse, 10 min
  Measured concentration of PEA (analyte): 0.50 µM
male, CD-1, mouse, 20 min
  Measured concentration of PEA (analyte): 0.44 µM
male, CD-1, mouse, 30 min
  Measured concentration of PEA (analyte): 0.38 µM
male, CD-1, mouse, 60 min
  Measured concentration of PEA (analyte): 0.37 µM
male, CD-1, mouse, s9, 0 h
  % Remaining of Initial: 100%
male, CD-1, mouse, s9, 10 min
  % Remaining of Initial: 4.6%
male, CD-1, mouse, s9, 20 min
  % Remaining of Initial: 1.0%
male, CD-1, mouse, s9, 0.5 h
  % Remaining of Initial: <1.0%
male, CD-1, mouse, s9, 1 h
  % Remaining of Initial: <1.0%
male, CD-1, mouse, s9, Half-life
  half-life at 1 μM: < 10 min
male, CD-1, mouse, s9, Half-life, calculated value in parentheses
  half-life at 1 μM: 2.3 min
[1]
  Measured concentration of PEA (analyte): 0.069 µM
[2]
  Measured concentration of PEA (analyte): 0.17 µM
[3]
  Measured concentration of PEA (analyte): 0.092 µM
[4]
  Measured concentration of PEA (analyte): 0.061 µM
[5]
  Measured concentration of PEA (analyte): 0.013 µM
[6]
  % Remaining of Initial: 100%
[7]
  % Remaining of Initial: 17%
[8]
  % Remaining of Initial: 2.8%
[9]
  % Remaining of Initial: <1.0%
[10]
  % Remaining of Initial: <1.0%
male, Sprague-Dawley, rat, s9, Half-life
  half-life at 1 μM: < 10 min
male, Sprague-Dawley, rat, s9, Half-life, calculated value in parentheses
  half-life at 1 μM: 3.9 min
